Data taken from patent US20240173325A1, “METHODS FOR TREATING SPINAL MUSCULAR ATROPHY” (Genentech, Inc., priority 2022, published 2024).
“Also recorded” adds a separate entry of the source. Like-named read-outs stand apart in the source and are kept apart here.

How the values were obtained:
[1] = system: rat fetuses; conditions: dams treated at about 1 mg/kg/day to about 7.5 mg/kg/day; cited from earlier work
[2] = system: SMN protein; conditions: cited from earlier work
[3] = Treatment emergent adverse events and safety monitoring of carrier, fetal subject and neonatal subject; type: in vivo, human; design: key to Serious (Y/N) / Study Term (Y/N): “Y” refers to yes; “N” refers to no; conditions: for Adverse Event or MedDRA Term: exposed in utero, oral 0.15 mg/kg from 8 days post-birth, 0.15 mg/kg
Description: X1 included routine monitoring of the carrier for the third trimester, specifically with regards to development of hypertension and features of pre-eclampsia or HELLP syndrome, with related blood and urine testing. X1 also included monitoring nausea, vomiting, or dehydration in the carrier and placental integrity and amniotic fluid volume. X1 further included fetal monitoring for fetal growth, organ system development, and fetal well- being and any signs of organ maldevelopment, especially in the brain, heart, kidney, and liver. A baseline pre-treatment full anatomical ultrasound study and growth scan were performed and subsequent ultrasonography occurred at three and six weeks before delivery of the fetal subject as the neonatal subject.
Also in Table 3, “X2” included safety labs for the carrier, such as the CBC screening, the CMP screening, and the UA, to assess potential toxicity from risdiplam, which were collected before dosing and then prior to delivery. The safety labs were collected at the baseline before dosing, then every 3-4 weeks up to delivery, including pre-operatively prior to the scheduled cesarean section. More frequent testing may occur if clinically indicated.
In Table 4, the “X5” post-delivery PK/PD collection and safety labs of the neonatal subject included CBC screening, CMP screening, and UA, and such safety labs could be repeated if the results are deemed abnormal as compared to a healthy individual.
Table 5 summarizes results of the carrier and the fetal subject clinical assessments during the pregnancy of the carrier when exposed to risdiplam and in the neonatal subject for 6 weeks following delivery, for a minimum of 30 days following the last dose of risdiplam.
Specifically, Table 5 depicts the treatment emergent adverse events, seriousness of the event, intensity of the adverse event, relatedness of the adverse event to administration of the risdiplam, study term, and start and end dates for the adverse event the detected from this Example.
Each adverse event term is associated with a Medical Dictionary for Regulatory Activity (or MedDRA) term and the intensity is categorized based on the CTCAE grading. In Table 5, “Y” refers to yes and “N” refers to no and the intensity is measured from a lowest level of intensity or “I” to a highest level of intensity or “V.” “VSD” is a ventricular septal defect, “GERD” is gastroesophageal reflux disease, and “NICU” refers to neonatal intensive care unit.

[4] = clinical; design: species or system human; conditions: in vivo
Experimental: The fetal subject assigned to this treatment plan received risdiplam through the carrier after all basic organ systems of the fetal subject had substantially completed fundamental embryogenesis in its third trimester of development in a range of from about thirty-two and a half weeks to its delivery from the carrier at about thirty-eight and a half weeks gestation. During this period, risdiplam was administered to the fetal subject through a carrier treatment cycle in which a single daily dose of 5 mg of risdiplam was administered orally to the carrier of the fetal subject.
Risdiplam trough drug levels were obtained from the carrier and the subject as the neonatal subject at time points represented in Table 2A and Table 2B from 32.5 weeks gestation prior to administration of risdiplam to the carrier through 43 days post-delivery. The risdiplam drug levels detected in plasma (ng/mL) of the carrier and the neonatal subject were determined by liquid chromatography-tandem mass spectroscopy (LC-MS/MS).
Since it was determined that a level of the risdiplam in the cord blood of the neonatal subject was less than about 100 ng/mL or about 0.1 mg/L when the neonatal subject was bom, the neonatal treatment cycle was initiated. The neonatal treatment cycle began 8 days after birth (d8) and included administering risdiplam to the neonatal subject at a single daily dose of 0.15 mg/kg.
In addition, in Table 3, blood samples for risdiplam PK and PD were collected from the carrier prior to the first dose of the risdiplam and 24-hours post- dose of the risdiplam. PK/PD samples were collected from the carrier every two weeks for up to six weeks after delivery to assess risdiplam clearance. At the time of delivery, samples of umbilical cord blood and amniotic fluid were collected to assess risdiplam exposure to the fetal subject in utero. Collection of the cord blood and the amniotic fluid could have also included collection of the cord blood and the amniotic fluid during pregnancy of the carrier if an amniocentesis was deemed to be needed.

In the case of Cc1cn2nc(-c3cc(=O)n4cc(N5CCNC6(CC6)C5)ccc4n3)cc(C)c2n1 [risdiplam, 7-(4,7-diazaspiro[2.5]octan-7-yl)-2-(2,8-dimethylimidazo[1,2-b]pyridazin-6-yl)-4H-pyrido[1,2-a]pyrimidin-4-one], the “Findings in rat fetuses” value [1] is given as “weight loss and minor differences in skeletal ossification”, the “SMN protein level in whole blood, reference values (median, range)” value (from here on “SMN protein level in whole blood”) ([2]; high dose 0.2 mg/kg/day, 4 W risdiplam) is given as 5.9 (2.8-8.8) ng/mL and the “SMN protein level in whole blood” value ([2]; high dose 0.2 mg/kg/day, 12 M risdiplam) is given as 5.7 (2.7-8.6) ng/mL. The “SMN protein level in whole blood” value ([2]; high dose 0.2 mg/kg/day, T0) was “T0: 2.5 (1.1-6.4) ng/mL”, the “SMN protein level in whole blood” value ([2]; low dose 0.08 mg/kg/day, 4 W risdiplam) was 4.5 (2.6-5.6) ng/mL and the “SMN protein level in whole blood” value ([2]; low dose 0.08 mg/kg/day, 12 M risdiplam) was 3.0 (1.8-5.5) ng/mL. For the same compound, the “SMN protein level in whole blood” value ([2]; low dose 0.08 mg/kg/day, T0) was “T0: 1.3 (0.6-4.8) ng/mL”, the “Serious (Y/N)” value ([3]; carrier adverse events) was “N” and the “Study Term (Y/N)” value ([3]; carrier adverse events) was “N”. The “Overall safety and tolerability” value ([3]; carrier and subject as fetal and neonatal subject) was “no drug-related adverse events; also recorded: safe and well tolerated”, the “Surveillance labs during pregnancy” value ([3]; carrier while on risdiplam) was “normal until proteinuria was detected at 36WG” and the Fetal ultrasound assessments ([3]; fetal subject during carrier treatment) was “unremarkable”. For the same compound, the Biophysical profiles ([3]; fetal subject, each time point) was “normal”, the “CBC, CMP, and U/A” value ([3]; neonatal subject) was “normal” and the “Study Term (Y/N)” value ([3]; neonatal subject adverse events) was “N”. The “Adverse Event or MedDRA Term” value ([3]; neonatal subject, adverse event number 1) was “Respiratory”, the “Adverse Event or MedDRA Term” value ([3]; neonatal subject, adverse event number 2) was “Congenital disorder” and the “Adverse Event or MedDRA Term” value ([3]; neonatal subject, adverse event number 3) was “Weight gain”. The “Risdiplam level in amniotic fluid (AF)” value ([4]; female, human) was 5.09 ng/mL, the “Risdiplam level in plasma, venous (V)” value ([4]; female, human) was 15.6 ng/mL and the concentration at 43 d postnatal ([4]; female, human) was 0.4 ng/mL. For the same compound, the “Risdiplam level in plasma” value ([4]; female, human, 20 d postnatal) was 0.7 ng/mL, the “Risdiplam level in plasma” value ([4]; female, human, 29 d postnatal) was 0.6 ng/mL and the Kp ([4]; female, human, Amniotic fluid risdiplam level relative to carrier plasma venous level) was roughly 0.33. For the same compound, the Kp ([4]; female, human, Cord venous and arterial plasma risdiplam level relative to carrier plasma level) was roughly 0.69, the “Level of risdiplam in cord blood” value ([4]; human) was “less than 100 ng/mL” and the “Risdiplam level in cord plasma, arterial (A)” value ([4]; human) was 10.4 ng/mL. For the same compound, the “Risdiplam level in cord plasma, venous (V)” value ([4]; human) was 11.2 ng/mL, the half-life ([4]; human) was 46 h and the “Risdiplam level in plasma” value ([4]; human, 8 d postnatal) was 0.6 ng/mL. The concentration at 43 d postnatal ([4]; human, po, 0.15 mg/kg/day) was 62 ng/mL, the “Risdiplam trough level in plasma” value [4] was “BLQ*” and the “Placental transfer from carrier to fetal subject” value ([4]; po) was “crosses the placenta”.
